From US7671242B2 (priority 2005, dated 2010)
In brackets after ≈: the same amount, converted by molar mass. Where two headings read alike, the source gives them in different places.

Key:
[1] = cited from earlier work
[2] = cited from earlier work; remark: listed apart in the source
[3] = cited from earlier work; remark: listed apart in the source
[4] = format: physicochemical; details: lipoxidase treatment at 37° C., hexane:ethyl ether extraction, HPLC

| Compound | Lipid and water solubility [1] | Solubility ([2]; Ethyl acetate) [µg/mL] | Solubility ([2]; Methyl tert butyl ether) [µg/mL] | Solubility in nonpolar and polar solvents ([2]; nonpolar and polar solvents) | Solubility in water ([2]; water) | Stability ([3]; light and oxygen) | Stability ([3]; stored at −20° C. under a nitrogen atmosphere) | initial lutein recovered after enzyme treatment [4] |
| --- | --- | --- | --- | --- | --- | --- | --- | --- |
| aflatoxin B1 [AFB1] | both lipid and water soluble | – | – | – | – | – | – | – |
| CC1=C[C@H](O)CC(C)(C)[C@H]1/C=C/C(C)=C/C=C/C(C)=C/C=C/C=C(C)/C=C/C=C(C)/C=C/C1=C(C)C[C@@H](O)CC1(C)C [Lutein, 3,3′-dihydroxy-alpha-carotene] | – | 800 (≈ 1410 µM) | 2000 (≈ 3520 µM) | soluble in both nonpolar and polar solvents | Insoluble | Unstable to light and oxygen; | Stable if stored at −20 °C under a nitrogen | Approximately 88% |
